Here are results for 24 molecules from US20240317723A1, “SUBSTITUTED AMINO AZA-HETEROARYL COMPOUNDS AS INHIBITORS OF THE HAEMATOPOIETIC PROGENITOR KINASE 1 (HPK1)” (priority 2021, published 2024).

SMILES strings stand for the structures.

The target of test [1] is T1, Recombinant (1-346) HPK1 (h) (Homo sapiens, UniProt Q92918).
T1 construct: Recombinant (1-346) HPK1 (h) is incubated with 8 mM MOPS pH 7.0
T1 sequence (Q92918 1-346): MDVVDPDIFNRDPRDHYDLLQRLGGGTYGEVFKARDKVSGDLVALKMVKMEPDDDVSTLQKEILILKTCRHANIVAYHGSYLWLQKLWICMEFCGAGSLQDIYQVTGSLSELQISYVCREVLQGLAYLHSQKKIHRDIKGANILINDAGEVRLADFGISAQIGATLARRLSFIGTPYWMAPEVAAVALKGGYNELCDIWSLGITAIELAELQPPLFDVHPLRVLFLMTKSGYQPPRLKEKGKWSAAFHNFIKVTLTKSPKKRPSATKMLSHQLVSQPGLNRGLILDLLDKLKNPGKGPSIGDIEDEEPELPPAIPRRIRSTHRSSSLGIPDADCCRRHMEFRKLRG
Briefly: HPK1 Human STE Kinase Enzymatic Radiometric Assay. The test is classed as biochemical. To be noted: [gamma-33P]-ATP, myelin basic protein substrate, read-out: HPK1 IC50 nM Range*. The protocol:
(a) HPK1 Human STE Kinase Enzymatic Radiometric Assay
A stock solution of 10 mM of test compound is prepared in DMSO. The compound plate was prepared by 3-fold and 9-point serial dilutions. Recombinant (1-346) HPK1 (h) is incubated with 8 mM MOPS pH 7.0, 0.2 mM EDTA, 0.33 mg/mL myelin basic protein, 10 mM MgAcetate and [gamma-33P]-ATP (specific activity and concentration as required). The reaction is initiated by the addition of the Mg/ATP mix. After incubation for 40 minutes at RT, the reaction is stopped by the addition of phosphoric acid to a concentration of 0.5%. 10 uL of the reaction is then spotted onto a P30 filtermat and washed four times for 4 minutes in 0.425% phosphoric acid and once in methanol prior to drying and scintillation counting. For more details of kinase assay protocols, see: Gao, Y. et. al.; Biochem J. 451 (2): 313-328, 2013.

For test [2], the target named is Lck (h) (Homo sapiens, UniProt P06239). As to the kind of experiment: Lck Human STE Kinase Enzymatic Radiometric Assay. It counts as biochemical. To be noted: for IC50: radiometric, [gamma-33P]-ATP, Cdc2 peptide substrate, read-out: Lck IC50, nM Range*; for Selectivity: selectivity for inhibition of HPK1 vs Lck. Here is the method:
(b) Lck Human STE Kinase Enzymatic Radiometric Assay
Lck (h) is incubated with 50 mM Tris pH 7.5, 0.1 mM EGTA, 0.1 mM Na3VO4, 250 uM KVEKIGEGTYGVVYK (Cdc2 peptide), 10 mM MgAcetate and [gamma-33P]-ATP (specific activity and concentration as required). The reaction is initiated by the addition of the Mg/ATP mix. After incubation for 40 minutes at room temperature, the reaction is stopped by the addition of phosphoric acid to a concentration of 0.5%. 10 uL of the reaction is then spotted onto a P30 filtermat and washed four times for 4 minutes in 0.425% phosphoric acid and once in methanol prior to drying and scintillation counting. For more details on the kinase assay procedures see: Gao, Y. et. al.; Biochem J., 451 (2): 313-328, 2013.
In some embodiments the presence of substituents on monocyclic Cy^2 rings or when Cy^2 is a bicyclic ring (unsubstituted or substituted) provides compounds with improved selectivity for inhibition of HPK1 vs Lck (see, for example, Table 3 and Table 4).

Lck (h), sequence (P06239 whole entry): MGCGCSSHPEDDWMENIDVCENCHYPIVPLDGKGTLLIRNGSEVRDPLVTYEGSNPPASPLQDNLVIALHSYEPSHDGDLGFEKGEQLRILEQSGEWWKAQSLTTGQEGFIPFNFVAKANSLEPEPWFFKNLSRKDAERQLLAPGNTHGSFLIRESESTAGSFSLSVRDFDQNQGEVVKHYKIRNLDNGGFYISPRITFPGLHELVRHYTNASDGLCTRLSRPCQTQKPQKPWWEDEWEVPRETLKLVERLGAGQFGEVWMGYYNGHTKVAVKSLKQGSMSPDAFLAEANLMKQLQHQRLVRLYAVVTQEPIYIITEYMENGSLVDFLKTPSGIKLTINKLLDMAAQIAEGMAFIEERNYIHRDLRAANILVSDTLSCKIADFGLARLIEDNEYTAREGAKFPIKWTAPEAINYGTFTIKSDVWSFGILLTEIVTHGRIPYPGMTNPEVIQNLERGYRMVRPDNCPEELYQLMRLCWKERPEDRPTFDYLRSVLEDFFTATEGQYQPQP

The term IC50 denotes the concentration that inhibits the measured activity by half. In the case of `Nc1ncc(-c2ccc([C@]34C[C@H]3CN(C3CC3)C4)cc2)nc1-c1cc2c(cc1F)C(=O)NCC2` [Example I-52, 6-(3-amino-6-(4-((1S,5R)-3-cyclopropyl-3-azabicyclo[3.1.0]hexan-1-yl)phenyl)pyrazin-2-yl)-7-fluoro-3,4-dihydroisoquinolin-1(2H)-one], the figures for the IC50 in test [1] and in test [2] were 0.1 to 5 nM and 6 to 10 nM, respectively.

Regarding `CC(C)N1CCN(c2ccc(-c3cnc(N)c(-c4ccc5c(c4)CCNC5=O)n3)cc2)[C@H](C)C1` [Example I-53, (R)-6-(3-amino-6-(4-(4-isopropyl-2-methylpiperazin-1-yl)phenyl)pyrazin-2-yl)-3,4-dihydroisoquinolin-1(2H)-one], the IC50 in test [1] lay in the range of 0.1 to 5 nM.

For `CC(C)[C@@H]1CN(c2ccc(-c3cnc(N)c(-c4cc5c(cc4F)C(=O)NCC5)n3)cc2)CCO1` [Example I-27, (R)-6-(3-amino-6-(4-(2-isopropylmorpholino)phenyl)pyrazin-2-yl)-7-fluoro-3,4-dihydroisoquinolin-1(2H)-one], the results for the IC50 in test [1] and in test [2] were 0.1 to 5 nM and 6 to 10 nM, respectively.

With `CN1CCN(c2ccc(-c3cnc(N)c(-c4ccc5c(c4)CCNC5=O)n3)cc2)CC1` [Example I-1, 6-(3-amino-6-(4-(4-methylpiperazin-1-yl)phenyl)pyrazin-2-yl)-3,4-dihydroisoquinolin-1(2H)-one], the concentration for half-maximal inhibition (IC50) in test [1] is 0.1 to 5 nM; in test [2], 6 to 10 nM.

Turning to `CC(C)N1CCN(c2ccc(-c3cnc(N)c(-c4ccc5c(c4)CCNC5=O)n3)cc2)CC1` [Example I-3, 6-(3-amino-6-(4-(4-isopropylpiperazin-1-yl)phenyl)pyrazin-2-yl)-3,4-dihydroisoquinolin-1(2H)-one], the IC50 in test [1] was 0.1 to 5 nM; in test [2] it was 6 to 10 nM.

Consider `CN1C[C@@H]2C[C@H]1CN2c1ccc(-c2cnc(N)c(-c3ccc4c(c3)CCNC4=O)n2)cc1` [Example I-26, 6-(3-amino-6-(4-((1S,4S)-5-methyl-2,5-diazabicyclo[2.2.1]heptan-2-yl)phenyl)pyrazin-2-yl)-3,4-dihydroisoquinolin-1(2H)-one], for which the IC50 was 0.1 to 5 nM in test [1] and 11 to 20 nM in test [2].

For `CN(C)C1CCN(c2ccc(-c3cnc(N)c(-c4ccc5c(c4)CCNC5=O)n3)c(F)c2F)C1` (stereo not shown) [Example I-21, 6-(3-amino-6-(4-(3-(dimethylamino)pyrrolidin-1-yl)-2,3-difluorophenyl)pyrazin-2-yl)-3,4-dihydroisoquinolin-1(2H)-one], the figures for the concentration for half-maximal inhibition (IC50) in test [1] and in test [2] were 0.1 to 5 nM and 11 to 20 nM, respectively.

In test [2], `Nc1ncc(-c2ccc(N3CCOCC3)c(F)c2F)nc1-c1ccc2c(c1)CCNC2=O` [Comparator 2, 6-(3-amino-6-(2,3-difluoro-4-morpholinophenyl)pyrazin-2-yl)-3,4-dihydroisoquinolin-1(2H)-one, reference compound] yielded a Selectivity of 930.

For `C[C@@H]1CN(C)CCN1c1ccc(-c2cnc(N)c(-c3ccc4c(c3)CCNC4=O)n2)cc1` [Example I-54, (R)-6-(3-amino-6-(4-(2,4-dimethylpiperazin-1-yl)phenyl)pyrazin-2-yl)-3,4-dihydroisoquinolin-1(2H)-one], the IC50 in test [1] is 0.1 to 5 nM.

With `C[C@@H]1CCCN1c1ccc(-c2cnc(N)c(-c3ccc4c(c3)CCNC4=O)n2)c(F)c1` [Example I-43, (R)-6-(3-amino-6-(2-fluoro-4-(2-methylpyrrolidin-1-yl)phenyl)pyrazin-2-yl)-3,4-dihydroisoquinolin-1(2H)-one], the IC50 in test [1] was 6 to 10 nM; in test [2] it was 21 to 200 nM.

Turning to `CN(C)Cc1cc(C2CCOCC2)ccc1-c1cnc(N)c(-c2cc3c(cc2F)C(=O)NCC3)n1` [II-1, 6-(3-amino-6-(2-((dimethylamino)methyl)-4-(tetrahydro-2H-pyran-4-yl)phenyl)pyrazin-2-yl)-7-fluoro-3,4-dihydroisoquinolin-1(2H)-one], the IC50 in test [1] lay in the range of 6 to 10 nM.

`C[C@H]1CCCCN1c1ccc(-c2cnc(N)c(-c3ccc4c(c3)CCNC4=O)n2)c(F)c1` [Example I-18, (S)-6-(3-amino-6-(2-fluoro-4-(2-methylpiperidin-1-yl)phenyl)pyrazin-2-yl)-3,4-dihydroisoquinolin-1(2H)-one]: the IC50 in test [1] was in the range of 6 to 10 nM; in test [2], 21 to 200 nM.

With `CN1CCN(c2ccc(-c3cnc(N)c(-c4cc(F)c5c(c4)CCNC5=O)n3)cc2)CC1` [Example I-5, 6-(3-amino-6-(4-(4-methylpiperazin-1-yl)phenyl)pyrazin-2-yl)-8-fluoro-3,4-dihydroisoquinolin-1(2H)-one], the IC50 lay within 0.1 to 5 nM in test [1] and 6 to 10 nM in test [2].

As for `CN1CCN(c2ccc(-c3cnc(N)c(-c4ccc5c(c4)CCNC5=O)n3)cc2F)CC1` [Example I-4, 6-(3-amino-6-(3-fluoro-4-(4-methylpiperazin-1-yl)phenyl)pyrazin-2-yl)-3,4-dihydroisoquinolin-1(2H)-one], the IC50 in test [1] lay within 0.1 to 5 nM; in test [2] it was 6 to 10 nM.

On to `C[C@@H]1CN(c2ccc(-c3cnc(N)c(-c4ccc5c(c4)CCNC5=O)n3)cc2)C[C@H](C)N1C` [Example I-55, 6-(3-amino-6-(4-((3R,5S)-3,4,5-trimethylpiperazin-1-yl)phenyl)pyrazin-2-yl)-3,4-dihydroisoquinolin-1(2H)-one], for which, in test [1], the 50% inhibitory concentration (IC50) was 0.1 to 5 nM.

As for `Cc1[nH]c(=O)c2c(F)cc(-c3nc(-c4ccc(C5CCOCC5)c(CN(C)C)c4)cnc3N)cc2c1F` [II-5, 6-(3-amino-6-(3-((dimethylamino)methyl)-4-(tetrahydro-2H-pyran-4-yl)phenyl)pyrazin-2-yl)-4,8-difluoro-3-methylisoquinolin-1(2H)-one], in test [1], the IC50 fell in the range of 0.1 to 5 nM.

As for `Cc1c[nH]c(=O)c2cc(F)c(-c3nc(-c4ccc(C5CCOCC5)c(CN(C)C)c4)cnc3N)cc12` [II-2, 6-(3-amino-6-(3-((dimethylamino)methyl)-4-(tetrahydro-2H-pyran-4-yl)phenyl)pyrazin-2-yl)-7-fluoro-4-methylisoquinolin-1(2H)-one], the IC50 in test [1] is 0.1 to 5 nM.

`Nc1ncc(-c2ccc(N3CCOCC3)cc2)nc1-c1ccc2c(c1)CCNC2=O` [Comparator 1, 6-(3-amino-6-(4-morpholinophenyl)pyrazin-2-yl)-3,4-dihydroisoquinolin-1(2H)-one, reference compound] had a Selectivity in test [2] of 31.

`Nc1ncc(-c2ccc(N3CCOCC3)cc2F)nc1-c1ccc2c(c1)CCNC2=O` [Comparator 4, 6-(3-amino-6-(2-fluoro-4-morpholinophenyl)pyrazin-2-yl)-3,4-dihydroisoquinolin-1(2H)-one, reference compound] returned a Selectivity in test [2] of 405.

Consider `Cc1cc2cc(-c3nc(-c4ccc(C5CCOCC5)c(CN(C)C)c4)cnc3N)cc(F)c2c(=O)[nH]1` [II-4, 6-(3-amino-6-(3-((dimethylamino)methyl)-4-(tetrahydro-2H-pyran-4-yl)phenyl)pyrazin-2-yl)-8-fluoro-3-methylisoquinolin-1(2H)-one], for which the IC50 in test [1] is 0.1 to 5 nM.

As to `CN1CCN(c2ccc(-c3cc(-c4ccc5c(c4)CCNC5=O)c(N)nn3)cc2)CC1` [Example I-49, 6-(3-amino-6-(4-(4-methylpiperazin-1-yl)phenyl)pyridazin-4-yl)-3,4-dihydroisoquinolin-1(2H)-one], the IC50 in test [1] was in the range of 21 to 200 nM.

Regarding `Cc1nc2cc(-c3nc(-c4ccc(N5CCN(C)CC5)cc4)cnc3N)ccc2c(=O)[nH]1` [Example I-57, 7-(3-amino-6-(4-(4-methylpiperazin-1-yl)phenyl)pyrazin-2-yl)-2-methylquinazolin-4(3H)-one], in test [1], the IC50 fell in the range of 6 to 10 nM.

On to `Cc1cc2cc(-c3nc(-c4ccc(N5CCN(C)CC5)cc4)cnc3N)ccc2c(=O)[nH]1` [Example I-51, 6-(3-amino-6-(4-(4-methylpiperazin-1-yl)phenyl)pyrazin-2-yl)-3-methylisoquinolin-1(2H)-one], for which the 50% inhibitory concentration (IC50) in test [1] lay in the range of 0.1 to 5 nM.

On to `CCN1CCN(c2ccc(-c3cnc(N)c(-c4ccc5c(c4)CCNC5=O)n3)cc2)CC1` [Example I-56, 6-(3-amino-6-(4-(4-ethylpiperazin-1-yl)phenyl)pyrazin-2-yl)-3,4-dihydroisoquinolin-1(2H)_-one], for which the IC50 in test [1] lay in the range of 0.1 to 5 nM.
